Results taken from patent US20250320189A1, “NEW DERIVATIVES FOR TREATING TRPM3 MEDIATED DISORDERS” (Katholieke Universiteit Leuven, priority 2022, published 2025).

Target: T1, mouse TRPM3α2 (mTRPM3) ion channel (Mus musculus, UniProt J9SQF3)
T1 construct: expressed in transfected cells; host or cells: flip-in (Flp-In) HEK293
Test: Monitoring the TRPM3 ion channel driven Ca2+ uptake (Fluo-4 AM assay)
Type: cell-based
Conditions: mTRPM3alpha2 overexpressing flip-in HEK293 cells, stimulated with Pregnenolone sulfate (PS) 50 μM
Procedure, shortened: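 Flp-In HEK293 cells overexpressing mTRPM3α2 were loaded with Fluo-4 AM and added to plates holding compound plus 50 μM pregnenolone sulfate in Ca²⁺-containing Krebs buffer. Fluorescence (ex 485/em 535) was read right after cell addition. Inhibition was calculated against vehicle-stimulated and positive-control-inhibitor wells, with IC50 derived from it.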

T1 sequence (J9SQF3 1-1709 isoform J9SQF3-12): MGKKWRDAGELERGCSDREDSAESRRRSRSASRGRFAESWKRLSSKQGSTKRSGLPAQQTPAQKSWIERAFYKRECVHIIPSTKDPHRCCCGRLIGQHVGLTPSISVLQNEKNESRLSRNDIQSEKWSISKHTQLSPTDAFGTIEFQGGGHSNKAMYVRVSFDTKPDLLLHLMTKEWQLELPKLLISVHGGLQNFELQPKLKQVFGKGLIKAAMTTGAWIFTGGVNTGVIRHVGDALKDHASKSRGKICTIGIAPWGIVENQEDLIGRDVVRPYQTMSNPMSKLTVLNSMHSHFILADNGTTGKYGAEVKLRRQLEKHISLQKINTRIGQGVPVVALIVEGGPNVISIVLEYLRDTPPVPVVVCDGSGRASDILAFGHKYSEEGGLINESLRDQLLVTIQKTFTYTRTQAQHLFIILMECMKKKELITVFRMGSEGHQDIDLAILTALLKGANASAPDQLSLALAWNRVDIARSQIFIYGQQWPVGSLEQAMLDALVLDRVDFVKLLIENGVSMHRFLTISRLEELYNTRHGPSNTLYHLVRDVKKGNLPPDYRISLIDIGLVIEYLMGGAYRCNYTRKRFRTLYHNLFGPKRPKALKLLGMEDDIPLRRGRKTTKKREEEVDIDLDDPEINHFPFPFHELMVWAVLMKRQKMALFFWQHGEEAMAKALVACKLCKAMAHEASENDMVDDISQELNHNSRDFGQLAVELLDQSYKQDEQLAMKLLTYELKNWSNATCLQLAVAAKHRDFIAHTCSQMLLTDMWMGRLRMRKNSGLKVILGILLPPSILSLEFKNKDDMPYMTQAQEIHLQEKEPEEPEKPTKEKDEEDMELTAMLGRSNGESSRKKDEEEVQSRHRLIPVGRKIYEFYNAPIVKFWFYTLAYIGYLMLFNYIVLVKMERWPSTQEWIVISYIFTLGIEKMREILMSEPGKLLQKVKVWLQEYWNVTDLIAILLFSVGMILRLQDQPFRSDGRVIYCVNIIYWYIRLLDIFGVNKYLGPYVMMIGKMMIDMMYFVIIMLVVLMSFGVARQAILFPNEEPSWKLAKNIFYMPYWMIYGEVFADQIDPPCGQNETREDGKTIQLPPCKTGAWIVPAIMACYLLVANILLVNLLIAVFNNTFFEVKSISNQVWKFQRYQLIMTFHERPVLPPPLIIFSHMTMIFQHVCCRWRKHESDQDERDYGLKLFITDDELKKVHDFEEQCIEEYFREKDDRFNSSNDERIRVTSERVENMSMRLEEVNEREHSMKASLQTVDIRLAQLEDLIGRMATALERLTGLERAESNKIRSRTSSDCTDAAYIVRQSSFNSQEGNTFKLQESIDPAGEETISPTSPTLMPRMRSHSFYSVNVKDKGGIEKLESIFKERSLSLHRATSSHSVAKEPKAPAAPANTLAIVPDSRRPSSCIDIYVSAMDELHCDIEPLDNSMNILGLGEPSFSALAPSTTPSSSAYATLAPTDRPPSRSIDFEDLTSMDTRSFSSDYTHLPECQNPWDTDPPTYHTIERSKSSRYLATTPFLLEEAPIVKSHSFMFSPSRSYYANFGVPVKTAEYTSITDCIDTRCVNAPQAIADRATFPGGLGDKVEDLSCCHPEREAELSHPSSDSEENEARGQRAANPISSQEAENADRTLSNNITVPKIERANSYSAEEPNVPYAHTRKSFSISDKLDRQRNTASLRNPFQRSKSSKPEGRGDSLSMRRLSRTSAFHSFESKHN

Row | IC50 [nM] | SMILES
1 | 1000 to 20000 | Cc1oc2ccc(OCC3CC3)cc2c1C(=O)NC1CCN(C)CC1 [Cpd 021, 5-(cyclopropylmethoxy)-2-methyl-N-(1-methylpiperidin-4-yl)-1-benzofuran-3-carboxamide]
2 | < 1000 | Cc1oc2ccc(OCC3CC3)cc2c1C(=O)NC1(C(N)=O)CCOCC1 [Cpd 037, N-(4-carbamoyloxan-4-yl)-5-(cyclopropylmethoxy)-2-methyl-1-benzofuran-3-carboxamide]
3 | < 1000 | Cc1oc2ccc(OCC3CC3)cc2c1C(=O)NC(C)(CO)C(N)=O (single isomer, unassigned) [Cpd 017 - En2, 2-{[5-(cyclopropylmethoxy)-2-methyl-1-benzofuran-3-yl]formamido}-3-hydroxy-2-methylpropanamide]
4 | < 1000 | Cc1oc2ccc(OCC3CC3)cc2c1C(=O)NC(C)(CO)C(N)=O (single isomer, unassigned) [Cpd 017 - En1, 2-{[5-(cyclopropylmethoxy)-2-methyl-1-benzofuran-3-yl]formamido}-3-hydroxy-2-methylpropanamide]
5 | > 20000 | Cc1oc2ccc(OCC3CCCCC3)cc2c1C(=O)NC1CCN(C)CC1 [Cpd 020, 5-(cyclohexylmethoxy)-2-methyl-N-(1-methylpiperidin-4-yl)-1-benzofuran-3-carboxamide]
6 | < 1000 | Cc1oc2ccc(OCC3CCC3)cc2c1C(=O)NC(C)(CO)C(N)=O (single isomer, unassigned) [Cpd 053 - En1, 2-{[5-(cyclobutylmethoxy)-2-methyl-1-benzofuran-3-yl]formamido}-3-hydroxy-2-methylpropanamide]
7 | < 1000 | Cc1oc2ccc(OCC3CC3)cc2c1C(=O)N[C@@H](C)C(N)=O [Cpd 010, (2S)-2-{[5-(cyclopropylmethoxy)-2-methyl-1-benzofuran-3-yl]formamido}propanamide]
8 | < 1000 | Cc1oc2ccc(OCC3CC3)cc2c1C(=O)NC1(C(N)=O)CCOC1 (single isomer, unassigned) [Cpd 035 - En2, N-(3-carbamoyloxolan-3-yl)-5-(cyclopropylmethoxy)-2-methyl-1-benzofuran-3-carboxamide]
9 | < 1000 | Cc1oc2ccc(OCC3CC3)cc2c1C(=O)NC1(CO)CCNC1=O (single isomer, unassigned) [Cpd 028 - En2, 5-(cyclopropylmethoxy)-N-[3-(hydroxymethyl)-2-oxopyrrolidin-3-yl]-2-methyl-1-benzofuran-3-carboxamide]
10 | < 1000 | Cc1oc2ccc(OCC3CCCC3)cc2c1C(=O)NC(C)(CO)C(N)=O (single isomer, unassigned) [Cpd 062 - En2, 2-{[5-(cyclopentylmethoxy)-2-methyl-1-benzofuran-3-yl]formamido}-3-hydroxy-2-methylpropanamide]

Continued, compound first:

Row | SMILES | IC50 [nM]
11 | Cc1oc2ccc(OCC3CC3(F)F)cc2c1C(=O)NC(CO)CC(F)(F)F (single isomer, unassigned) [Cpd 057 - En2, 5-[(2,2-difluorocyclopropyl)methoxy]-2-methyl-N-(4,4,4-trifluoro-1-hydroxybutan-2-yl)-1-benzofuran-3-carboxamide] | < 1000
12 | Cc1oc2ccc(OCC3(C(F)(F)F)CC3)cc2c1C(=O)NC(C)(CO)C(N)=O (single isomer, unassigned) [Cpd 048 - En1, 3-hydroxy-2-methyl-2-[(2-methyl-5-{[1-(trifluoromethyl)cyclopropyl]methoxy}-1-benzofuran-3-yl)formamido]propanamide] | < 1000
13 | Cc1oc2ccc(OCC3CC3(F)F)cc2c1C(=O)NC(CO)CC(F)(F)F (single isomer, unassigned) [Cpd 057 - En3, 5-[(2,2-difluorocyclopropyl)methoxy]-2-methyl-N-(4,4,4-trifluoro-1-hydroxybutan-2-yl)-1-benzofuran-3-carboxamide] | 1000 to 20000
14 | Cc1oc2ccc(OCCC3CC3)cc2c1C(=O)N[C@@H](CO)C(N)=O [Cpd 005, (2S)-2-{[5-(2-cyclopropylethoxy)-2-methyl-1-benzofuran-3-yl]formamido}-3-hydroxypropanamide] | < 1000
15 | Cc1oc2ccc(OCC34CC(C)(C3)C4)cc2c1C(=O)NC(C)(CO)C(N)=O (single isomer, unassigned) [Cpd 052 - En1, 3-hydroxy-2-methyl-2-{[2-methyl-5-({3-methylbicyclo[1.1.1]pentan-1-yl}methoxy)-1-benzofuran-3-yl]formamido}propenamide] | < 1000
16 | Cc1oc2ccc(OCC3CC3(F)F)cc2c1C(=O)NC1CCNCC1(F)F (single isomer, unassigned) [Cpd 031 - En1, 5-[(2,2-difluorocyclopropyl)methoxy]-N-(3,3-difluoropiperidin-4-yl)-2-methyl-1-benzofuran-3-carboxamide] | 1000 to 20000
17 | Cc1oc2ccc(OCC(F)(F)F)cc2c1C(=O)NC(C)(CO)C(N)=O (single isomer, unassigned) [Cpd 047 - En2, 3-hydroxy-2-methyl-2-{[2-methyl-5-(2,2,2-trifluoroethoxy)-1-benzofuran-3-yl]formamido}propanamide] | < 1000
18 | Cc1oc2ccc(OCC(F)F)cc2c1C(=O)NC(C)(CO)C(N)=O (single isomer, unassigned) [Cpd 041 - En2, 2-{[5-(2,2-difluoroethoxy)-2-methyl-1-benzofuran-3-yl]formamido}-3-hydroxy-2-methylpropanamide] | 1000 to 20000
19 | Cc1oc2ccc(OCC3CC3(F)F)cc2c1C(=O)N[C@@H](CO)C(N)=O (single isomer, unassigned) [Cpd 002 - En1] | < 1000
20 | Cc1oc2ccc(OCC3CC3)cc2c1C(=O)NC(C)(CO)CC(F)F (single isomer, unassigned) [Cpd 046 - En2, 5-(cyclopropylmethoxy)-N-(4,4-difluoro-1-hydroxy-2-methylbutan-2-yl)-2-methyl-1-benzofuran-3-carboxamide] | < 1000
21 | Cc1oc2ccc(OCC34CC(C)(C3)C4)cc2c1C(=O)NC(C)(CO)C(N)=O (single isomer, unassigned) [Cpd 052 - En2, 3-hydroxy-2-methyl-2-{[2-methyl-5-({3-methylbicyclo[1.1.1]pentan-1-yl}methoxy)-1-benzofuran-3-yl]formamido}propenamide] | < 1000
22 | Cc1oc2ccc(OCC(F)F)cc2c1C(=O)NC(C)(CO)C(N)=O (single isomer, unassigned) [Cpd 041 - En1, 2-{[5-(2,2-difluoroethoxy)-2-methyl-1-benzofuran-3-yl]formamido}-3-hydroxy-2-methylpropanamide] | < 1000
23 | Cc1oc2ccc(OCC(F)F)cc2c1C(=O)NC1(C(N)=O)CCOC1 (single isomer, unassigned) [Cpd 044 - En1, N-(3-carbamoyloxolan-3-yl)-5-(2,2-difluoroethoxy)-2-methyl-1-benzofuran-3-carboxamide] | 1000 to 20000
24 | Cc1oc2ccc(OCC3CCCC3(F)F)cc2c1C(=O)NC(CO)C(N)=O (stereo not shown) [Cpd 013, 2-({5-[(2,2-difluorocyclopentyl)methoxy]-2-methyl-1-benzofuran-3-yl}formamido)-3-hydroxypropanamide] | < 1000
25 | Cc1oc2ccc(OCC3CC3(C)C)cc2c1C(=O)NC1CCNCC1(F)F (single isomer, unassigned) [Cpd 033-En3, N-(3,3-difluoropiperidin-4-yl)-5-[(2,2-dimethylcyclopropyl)methoxy]-2-methyl-1-benzofuran-3-carboxamide] | < 1000
